{
  "source": "patent US11246834B2",
  "about": "“Nutraceutical or pharmaceutical composition for use in the treatment of polycystic ovary syndrome or of diseases or disorders related thereto” (S&R FARMACEUTICI S.P.A., priority 2016, dated 2022)",
  "key": {"HEK293 cells [1]": {"test_system": "HEK293 cells", "experiment": "MTT test of cellular metabolism under hydrogen peroxide oxidative stress", "assay_type": "cell-based, Human", "conditions": "HEK293, 300 μM hydrogen peroxide; 40 μM myoinositol + 100 μM D-chiro inositol and/or 10 μM resveratrol", "method": "(§1) The measures have been performed in triplicate. Left (MTT) and (cell count). Human embryonic kidney HEK293 cells were grown in adherence in a growth medium consisting of DMEM supplemented with 10% fetal bovine serum (FBS) for 24 hours before being treated with 300 μM hydrogen peroxide in the presence of inositols (MI-D-chirol, 40 μM myoinositol and 100 μM D-chiro inositol, molar ratio MI/D-ChiroI=0.4) or resveratrol (10 μM) or in a combination of inositol and resveratrol. The effects of treatments on cellular metabolism were evaluated by the MTT test, while on the proliferation by cell count in Burker's chamber and all effects were compared with growing cells under controlled conditions (DMEN+10% FBS). The inositol concentrations were chosen based on the myo-inositol (MI) plasma concentration (26), and considering the molar ratio MI/D-Chirol=0.4 according to the invention, while the resveratrol concentration (10 μM) was chosen considering the plasma concentration expected after a treatment regime with resveratrol supported on hydroxide such as that from […]. […] Oxidative stress aggravates the pathological state of PCOS along with hormonal imbalance (27)."}, "HEK293 cells [2]": {"test_system": "HEK293 cells", "experiment": "Cell count in Burker's chamber (proliferation) under hydrogen peroxide oxidative stress", "assay_type": "cell-based, Human", "conditions": "HEK293, 300 μM hydrogen peroxide; 40 μM myoinositol + 100 μM D-chiro inositol and/or 10 μM resveratrol", "method": "as §1"}},
  "data": [
    {"smiles": "Oc1ccc(C=Cc2cc(O)cc(O)c2)cc1", "note": "[resveratrol]", "values": [
      {"measurement": "effect on the anti-proliferative effect of oxidative stress, metabolic activity (MTT)", "setting": "HEK293 cells [1]", "result": "only partially counteracted"},
      {"measurement": "effect on the anti-proliferative effect of oxidative stress, cell number (cell count)", "setting": "HEK293 cells [2]", "result": "only partially counteracted"}
    ]}
  ]
}
